{"source": "a melting point compilation (Tetko et al.; mined from patent text by program, amines drawn as free bases though some values may be those of a salt)", "data": [{"units": {"melting point": "°C"}, "values": [{"smiles": "FC(F)(F)c1ccccc1NC(=S)N1CCc2c(sc3c2C(c2ccccc2Cl)=NCc2nnc(Cc4ccccc4)n2-3)C1", "melting point": "239 to 240"}, {"smiles": "Nc1c(Cl)cc(C(O)CNCCCCCCOCCSCCc2ccccn2)cc1Cl", "note": "(configuration not stated)", "melting point": "59.5 to 62"}, {"smiles": "O=C(C(Cl)c1ccccc1)N1CCCC1", "note": "(configuration not stated)", "melting point": 88.5}, {"smiles": "COC(=O)C1c2c(C)c(O)c(C)c(C)c2OC1(C)C", "note": "(configuration not stated)", "melting point": "145 to 146"}, {"smiles": "CC(=O)OCC1CC(n2c(I)nc3cc(Cl)c(Cl)cc32)C(OC(C)=O)C1OC(C)=O", "note": "(configuration not stated)", "melting point": "152 to 153"}, {"smiles": "CCCCN(CC)CC(=O)OC1CC2(C)C(C(C)=O)CCC2C2CCC3CC(O)CCC3(C)C12", "note": "(configuration not stated)", "melting point": "111 to 112"}, {"smiles": "CC(C)(CC(O)(Cn1cc(Br)c(=O)c2sccc21)C(F)(F)F)c1cccc2c1OCO2", "note": "(configuration not stated)", "melting point": "197 to 198"}, {"smiles": "O=Cc1nccn1Cc1cn(-c2ccc(Cl)c(Cl)c2)cn1", "melting point": "130 to 131"}, {"smiles": "CN(C)c1ccc(S(=O)(=O)Nc2cnc3ccc(Cl)cc3n2)cc1", "melting point": "206 to 207"}, {"smiles": "CON(c1ccc([N+](=O)[O-])cc1Cl)S(=O)(=O)c1ccc(Cl)c(Cl)c1", "melting point": "132 to 133"}, {"smiles": "CS(=O)(=O)c1ccc(-c2cc(COCCO[N+](=O)[O-])nn2CC2CCCCC2)cc1", "melting point": "98 to 100"}, {"smiles": "CCCc1c(OCC2(Sc3ccc(C(=O)CCC(=O)O)cc3)CCCCC2O)ccc(C(C)=O)c1O", "note": "(configuration not stated)", "melting point": "65 to 67"}, {"smiles": "Cc1oc2c(NC(=O)c3c(Cl)ccc(O)c3Cl)cccc2c1C", "melting point": "192 to 194"}, {"smiles": "CCCCCCCC(=O)OCCc1c(-c2ccccc2)nc(NC(C)=O)n2ncnc12", "melting point": "69 to 70"}, {"smiles": "COc1cccc([C@H]2O[C@H](CC(=O)Nc3cc(C(=O)O)ccc3C)C(=O)N(CC(C)(C)CO)c3ccc(Cl)cc32)c1OC", "melting point": "172 to 173"}, {"smiles": "CCOC(C#CC(=NC(c1ccccc1)(c1ccccc1)c1ccccc1)C(F)F)OCC", "melting point": "173 to 175"}, {"smiles": "O=C(O)Cn1ncc(-c2ccccc2)c1-c1ccccc1", "melting point": "169 to 170"}, {"smiles": "COc1c(N2CCNCC2)c(F)cc2c(=O)c(C(=O)O)cn(C3CC3)c12", "melting point": "177 to 178"}, {"smiles": "CC(OC(=O)C1(C(=O)O)Oc2ccc(C[C@@H](C)NC[C@H](O)c3cccc(Cl)c3)cc2O1)c1ccccc1", "note": "(some centres not stated)", "melting point": "71 to 79"}, {"smiles": "O=C(NCc1ccc(Cl)cc1)c1cnc2ccc(-c3ccccc3)cc2c1O", "melting point": "255 to 257"}, {"smiles": "O=C(c1ccc(-c2ccccc2)cc1)c1cccnc1Cl", "melting point": "128 to 132"}, {"smiles": "O=C(O)C(=O)c1ccc2c(c1)OCO2", "melting point": "144 to 146"}, {"smiles": "CCOC(=O)c1cn(-c2cccnc2)cn1", "melting point": "102 to 103"}, {"smiles": "O=C(NNC(=O)c1occ(-c2ccccc2)c1-c1ccccc1)c1ccc(O)c([N+](=O)[O-])c1", "melting point": "214 to 217"}, {"smiles": "O=c1[nH]nc2cc(C(c3c(F)ccc(F)c3F)S(=O)(=O)CCC(F)(F)F)c(Cl)cn12", "note": "(configuration not stated)", "melting point": "209 to 211"}, {"smiles": "CC1(C)OC(=O)Nc2ccc(-c3cc(F)cc(-c4ccsc4)c3)cc21", "melting point": "200 to 203"}, {"smiles": "O=c1[nH]c(=S)c2[nH]cnc2n1Cc1ccccc1", "melting point": "262 to 263"}, {"smiles": "CCCCCCC1(CCCCCC)c2cc(Br)ccc2-c2ccc(Br)cc21", "melting point": "64 to 66"}, {"smiles": "O=C(c1ccccc1)c1cc(Cl)ccc1C#CCN1C(=O)c2ccccc2C1=O", "melting point": "130 to 133"}, {"smiles": "CN1C(=O)c2ccccc2C(C(=O)O)C1c1ccc(OCc2ccccc2)c(OCc2ccccc2)c1", "note": "(configuration not stated)", "melting point": "170 to 172"}, {"smiles": "COC1=NC(=O)c2c1cc1ccc3c(c1c2-c1ccc2c(c1)OCO2)OCO3", "melting point": "306 to 308"}, {"smiles": "Cc1ccc(C(=O)C2=C(O)C(=O)N(c3ccc(C)nn3)C2c2cccc(C(F)(F)F)c2)cc1", "note": "(configuration not stated)", "melting point": 232}, {"smiles": "O=C(CBr)c1ccc(OCCO)cc1", "melting point": 78}, {"smiles": "COc1ccccc1C1=Nc2ccc(C(=O)O)cc2C(=O)C1", "melting point": "290 to 294"}, {"smiles": "COn1c(=O)c2ccccc2n(-c2c(Cl)ccc(C)c2Cl)c1=O", "melting point": "211 to 213"}, {"smiles": "CN(C)C(=O)NC(=CC(=O)Nc1cc(F)c(C#N)cc1F)C(F)(F)F", "melting point": 138}, {"smiles": "CN1CCCC2C(=NO)CCCC21", "note": "(configuration not stated)", "melting point": "169 to 171"}, {"smiles": "O=C(O)CS(=O)c1cc2onc(-c3ccccc3F)c2cc1Br", "note": "(configuration not stated)", "melting point": "173 to 174"}, {"smiles": "COCCOc1cc([N+](=O)[O-])c2[nH]c(C3=NCC(C(OC)OC)S3)cc2c1", "note": "(configuration not stated)", "melting point": "100 to 101"}, {"smiles": "C=C(C)C1=CC(C)(C)Oc2c(OCC)cc(Cc3cnc(N)nc3N)cc21", "melting point": "188 to 189"}, {"smiles": "CC1(C)C=C(c2cccnc2)c2cc(Br)ccc2OC1", "melting point": 116}, {"smiles": "CC(C)OP(=O)(OCN1C(=O)c2c(C(C)C)cc(OCC(=O)O)cc2S1(=O)=O)OC(C)C", "melting point": "118 to 125"}, {"smiles": "COC(=O)CS(=O)(=O)Nc1c(F)cc(F)cc1F", "melting point": "99 to 100"}, {"smiles": "COC(=O)CCc1cc2cc(Cl)ccc2n1S(=O)(=O)c1ccccc1", "melting point": "93 to 96"}, {"smiles": "COc1ccc(S(=O)(=O)Nc2cccc3cn[nH]c23)cc1", "melting point": "155 to 156"}, {"smiles": "N#CC1(Cc2ccccc2)CCN(Cc2ccccc2)CC1", "melting point": 92}, {"smiles": "Cn1c(C2CCN(C(=O)OC(C)(C)C)CC2)nc2cc(-c3ccc(S(C)(=O)=O)cc3F)ccc21", "melting point": "85 to 88"}, {"smiles": "CS(=O)(=O)N1Cc2sccc2C(O)C1", "note": "(configuration not stated)", "melting point": 140}, {"smiles": "COc1ccc(S(=O)(=O)N(C)CP(=O)(O)O)cc1N", "melting point": "218 to 220"}, {"smiles": "CCOC(=O)OC(C)OC(=O)c1cc(-c2ccc(F)cc2F)ccc1O", "note": "(configuration not stated)", "melting point": "76 to 78"}, {"smiles": "COc1cc(OC)n2sc(=NS(=O)(=O)c3c(-c4nnn(C)n4)cnn3C)nc2n1", "melting point": "182 to 183"}, {"smiles": "COc1cc(OC)nc(NCC2COC3(CCC(C(C)(C)C)CC3)O2)n1", "note": "(configuration not stated)", "melting point": "76 to 106"}, {"smiles": "Cc1ccc(Cl)cc1NC(=S)Nc1cc[nH]n1", "melting point": "221 to 222"}, {"smiles": "O=C(NNS(=O)(=O)c1ccccc1)c1ccc2[nH]ccc2c1", "melting point": "209 to 211"}, {"smiles": "COc1ccccc1CNc1ccc2c(-c3noc(C)n3)cccc2n1", "melting point": 122}, {"smiles": "COCCCn1c2ccc(O)cc2c2c3c(c(-c4ccccc4Cl)cc21)C(=O)NC3=O", "melting point": "260 to 262"}, {"smiles": "CNc1nc(Nc2ccc(Cl)c(Cl)c2)ncc1NC(C)=O", "melting point": 267}, {"smiles": "ClC(Cl)=CCOc1cc(Cl)c(OCc2ccc(Cl)nc2)c(Cl)c1", "melting point": 93.3}, {"smiles": "O=C(Cc1ccccc1)Nc1cc(Cl)c(Cl)cc1[N+](=O)[O-]", "melting point": "116 to 118"}, {"smiles": "CCCCC(CC)C(=O)Nc1ccc2ccn(Cc3ccc(C(=O)OC)c4ccoc34)c2c1", "note": "(configuration not stated)", "melting point": "164 to 167"}, {"smiles": "COC1C(OC(=O)c2ccccc2)C=C(C)C(=O)CC1(C)C", "note": "(configuration not stated)", "melting point": "97 to 98"}, {"smiles": "COc1ccc(-n2nc(OC)cc2-c2ccc(OCCNC(N)=S)cc2)cc1", "melting point": 142}, {"smiles": "C=C(c1ccc(Cl)cc1)c1ccc(NC(=O)OC(C)(C)C)c(C)c1", "melting point": "102 to 104"}, {"smiles": "COc1cc2nc(N3CCN(c4ccc(O)nn4)CC3)nc(N)c2cc1OC", "melting point": "296 to 297"}, {"smiles": "CC(C)[Si](C#Cc1ccc2c(c1)c1cccc3c1c2c1cccc2c4cc(C#C[Si](C(C)C)(C(C)C)C(C)C)ccc4c3c21)(C(C)C)C(C)C", "melting point": "> 300"}, {"smiles": "CC(C)(C)[N+]([O-])=Cc1ccccc1OCc1ccccc1", "melting point": 111}, {"smiles": "O=C(Nc1ccc(S(=O)(=O)N2CCC(CNC[C@H](O)COc3ccc(O)cc3)CC2)cc1)Nc1ccccn1", "melting point": 189}, {"smiles": "COc1ccc(-c2nc3ccc(C(C)(C)CNC=O)cc3[nH]2)cn1", "melting point": "217 to 221"}, {"smiles": "CC(C)CC(NC(=O)COc1cccc2ccccc12)C(=O)NC(Cc1ccccc1)C(=O)CSCc1ccco1", "note": "(configuration not stated)", "melting point": "118 to 120"}, {"smiles": "C[C@H]1CCCC(C)(C)[C@@H]1[C@H](O)c1cccc(C#N)c1", "melting point": "105 to 107"}, {"smiles": "COC(=O)c1cc(F)ccc1Nc1ccnc2c(C(F)(F)F)cccc12", "melting point": 166}, {"smiles": "C=CCCn1cnc2c1c(=O)[nH]c(=O)n2C", "melting point": "245 to 246"}, {"smiles": "O=C(O)COCCN(C1CC1)S(=O)(=O)c1ccccc1Cl", "melting point": 115}, {"smiles": "Cc1cnc(Nc2nc(-c3ccccc3)nc3ccccc23)s1", "melting point": "215 to 216"}, {"smiles": "CCOC(=O)C1CCc2c(n(C)c3ccc(Cl)cc23)C1", "note": "(configuration not stated)", "melting point": "126 to 127"}, {"smiles": "c1ccc(-c2c3ccccc3nc3ccccc23)nc1", "melting point": "192 to 205"}, {"smiles": "COc1ccc(N2CCN(c3c(C)c(C)c4c(c3C)C[C@@H](C)O4)CC2)cc1", "melting point": "127 to 128"}, {"smiles": "CC(=O)NCC1CN(c2ccc(S(=O)(=O)CCO)c(F)c2)C(=O)O1", "note": "(configuration not stated)", "melting point": "162 to 163"}, {"smiles": "CN(C(=O)OC(C)(C)C)c1cc(Oc2ccc(-c3ccccc3)cc2)ccc1N", "melting point": "122 to 123"}, {"smiles": "Cc1ccnc(-c2ccc(C)c(-c3ccccc3)n2)n1", "melting point": 105}, {"smiles": "OCc1c(Cl)ccc(C2OCCO2)c1Cl", "melting point": "82 to 85"}, {"smiles": "Nc1sc2c(c1C(=O)c1ccc(Cl)c3ccccc13)CCCC2", "melting point": "179 to 181"}, {"smiles": "COc1ccc(OCC(O)CN2CCC3(CC2)CNC(=O)O3)cc1", "note": "(configuration not stated)", "melting point": "151 to 153"}, {"smiles": "CN1CC(=O)Nc2ccsc2C1=O", "melting point": "270 to 272"}, {"smiles": "Clc1ccc(-n2nc3c(c2Br)CSCC3)cc1", "melting point": "144 to 145"}, {"smiles": "O=C(Nc1ccc([N+](=O)[O-])cc1O)NC(c1ccccc1)c1ccccc1", "melting point": "237 to 238"}, {"smiles": "CON(c1ccc([N+](=O)[O-])cc1Cl)S(=O)(=O)c1cc(Cl)ccc1Cl", "melting point": "132 to 133"}, {"smiles": "c1ccc(C(OC2CCN(CCOc3ccc4nncn4n3)CC2)c2ccccc2)cc1", "melting point": "149 to 150"}, {"smiles": "CC(=O)OC1CSC(Oc2cncc(-c3cc4ccccc4s3)c2)C(OC(C)=O)C1OC(C)=O", "note": "(configuration not stated)", "melting point": 168}, {"smiles": "CCOC(OCC)c1cc(NC(c2ccccc2)(c2ccccc2)c2ccccc2)c(F)c(C2CCCO2)n1", "note": "(configuration not stated)", "melting point": "149 to 150"}, {"smiles": "O=S1(=O)c2cccc3cccc(c23)N1CCCN1CC=C(c2c[nH]c3ccc(F)cc23)CC1", "melting point": 224}, {"smiles": "Cc1cc(-c2noc(C(F)F)n2)cc(C)c1OCCCc1cncs1", "melting point": "78 to 80"}, {"smiles": "CCOc1sc(C)nc1S(N)(=O)=O", "melting point": "118 to 120"}, {"smiles": "CSc1cc2c(cc1C(F)(F)F)N(C(=O)Nc1cccc(C(=O)NCCN3CCOCC3)c1)CC2", "melting point": "198 to 200"}, {"smiles": "O=C(Nc1ccc(-n2nc(C(F)(F)F)cc2C(F)(F)F)cc1)c1cc(F)ccc1F", "melting point": "168 to 169"}, {"smiles": "ClCCN(CCCl)CCOc1ccc(Nc2c3ccccc3nc3c(OCCN(CCCl)CCCl)cccc23)cc1", "melting point": "105 to 106"}, {"smiles": "NC(=S)c1cc2c(cn1)[nH]c1ccccc12", "melting point": "274 to 276"}]}]}
